Measurements from patent US5541174A, “Analgesic method” (priority 1995, dated 1996).
Where “and” joins values, the source holds several entries; their conditions need not be identical. Identical values can stand only once.

What was measured:
[1] = system: acetic acid induced writhing in mice; test: Acetic acid-induced writhing test; format: in vivo, ICR male mice
[2] = system: adjuvant-induced arthritic pain in rats; test: Adjuvant-induced arthritic pain; format: in vivo, male Sprague-Dawley rats
In short: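 Male Sprague-Dawley rats (140-160 g, groups of 5-6) received intradermal tail-base 0.5 mg heat-killed Mycobacterium butyricum in paraffin oil. Vocalization was scored hourly for 5 h. ED50 with 95% limits by Litchfield-Wilcoxon.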

[3] = system: acetic acid-induced writhing mouse pain model; test: Measurement of time of peak activity in the acetic acid-induced writhing mouse pain model; format: in vivo; details: for Inhibition %: 2 umol/kg p.o.
Experimental: Groups of 10 ICR male mice (Taisho Pharmaceutical Co. Research Center) were used to study each dose of every compound. […] Number of writhes were counted for each mouse during a period of 10 to 20 min after acetic acid injection. Inhibitory percent was calculated by comparison with the number of writhes in the non-treated control, vehicle-treated, and acetic acid-injected group. The ED50 value and 95% confidence limits were calculated from the inhibitory percent by the method of Litchfield and Wilcoxon.
(§1) All drugs were suspended with 5% gum arabic in saline solution or wetted with enough propylene glycol to give a final concentration of 4% propylene glycol and the wetted solid suspended in 1.4% polyvinyl alcohol in saline.

[4] = system: acetic acid-induced writhing mouse pain model; test: Naloxone reversal of analgesia in the acetic acid-induced writhing mouse pain model; format: in vivo; details: for ED50: p.o.
Experimental: (§2) Groups of 10 ICR male mice (Taisho Pharmaceutical Co. Research Center) were used to study each dose of every compound. Ligands or complexes were administered orally or subcutaneously in 0.1 ml of vehicle per 10 g of body weight 30 minutes before the intrapertioneal injection of 0.1 ml of 0.7% acetic acid solution per 10 g of body weight. Number of writhes were counted for each mouse during a period of 10 to 20 min after acetic acid injection. Inhibitory percent was calculated by comparison with the number of writhes in the non-treated control, vehicle-treated, and acetic acid-injected group. The ED50 value and 95% confidence limits were calculated from the inhibitory percent by the method of Litchfield and Wilcoxon.
as §1
NaloxoneHCL (3 umol/kg. i.v., in saline, Endo Lab.) was administered 5
min. before acetic acid injection.

[5] = system: acetic acid-induced writhing mouse pain model; test: Comparison/potentiation of analgesic activity with morphine in the acetic acid-induced writhing mouse pain model; format: in vivo
Experimental: as §2

[6] = oral, 5% gum arabic, 0.006 mmol/kg
[7] = oral, 5% gum arabic, 0.013 mmol/kg

SMILES: COc1ccc2c(c1)c(CC(=O)[O-])c(C)n2C(=O)c1ccc(Cl)cc1.COc1ccc2c(c1)c(CC(=O)[O-])c(C)n2C(=O)c1ccc(Cl)cc1.COc1ccc2c(c1)c(CC(=O)[O-])c(C)n2C(=O)c1ccc(Cl)cc1.COc1ccc2c(c1)c(CC(=O)[O-])c(C)n2C(=O)c1ccc(Cl)cc1.[Cu+2].[Cu+2] [Cu(II)2 (indomethacin)4]
- ED50 ([1]; oral, 5% gum arabic in saline): 0.012 mmol/kg
- analgesic effectiveness versus parent ligand ([1]; oral, 5% gum arabic in saline): more effective than their parent ligands
- % Inhibition [1, 6]: 33%
- % Inhibition [1, 7]: 50%
- % Inhibition ([1]; oral, 5% gum arabic, 0.025 mmol/kg): 73%
- analgesic effectiveness versus parent ligand ([1]; oral, PG-PVA): more effective than their parent ligands
- ED50 ([1]; oral, PG-PVA in saline): 0.002 mmol/kg
- % Inhibition ([1]; oral, PG-PVA, 0.001 mmol/kg): 38%
- % Inhibition ([1]; oral, PG-PVA, 0.002 mmol/kg): 53%
- % Inhibition ([1]; oral, PG-PVA, 0.004 mmol/kg): 75%
- ED50 ([1]; s.c., PG-PVA in saline): 0.002 mmol/kg and 0.003 mmol/kg
- % Inhibition ([1]; s.c., PG-PVA, 0.002 mmol/kg): 34%
- % Inhibition ([1]; s.c., PG-PVA, 0.003 mmol/kg): 53%
- % Inhibition ([1]; s.c., PG-PVA, 0.006 mmol/kg): 70%
- ED50 ([2]; oral, 5% gum arabic in saline): 0.007 mmol/kg
- % Inhibition ([2]; oral, 5% gum arabic, 0.003 mmol/kg): 27%
- % Inhibition [2, 6]: 47%
- % Inhibition [2, 7]: 70%
- ED50 ([2]; oral, PG-PVA in saline): 0.002 mmol/kg
- % Inhibition ([2]; oral, PG-PVA, 0.001 mmol/kg): 20%
- % Inhibition ([2]; oral, PG-PVA, 0.002 mmol/kg): 40%
- % Inhibition ([2]; oral, PG-PVA, 0.003 mmol/kg): 87%
- ED50 ([2]; s.c., PG-PVA in saline): 0.002 mmol/kg
- % Inhibition ([2]; s.c., PG-PVA, 0.001 mmol/kg): 17%
- % Inhibition ([2]; s.c., PG-PVA, 0.002 mmol/kg): 43%
- % Inhibition ([2]; s.c., PG-PVA, 0.003 mmol/kg): 60%
- Inhibition % ([3]; 30 min): 54%
- Inhibition % ([3]; 60 min): 49%
- Inhibition % ([3]; 120 min): 43%
- Inhibition % ([3]; 180 min): 68%
- Inhibition % ([3]; 240 min): 33%
- duration of analgesic effect ([3]; Table VII): prolonged duration of analgesic effect
- % Inhibition ([4]; 0.5 umol/kg p.o., with Naloxone HCl 3 umol/kg i.v.): 19%
- % Inhibition ([4]; 0.5 umol/kg p.o., without naloxone): 43%
- % Inhibition ([4]; 1 umol/kg p.o., with Naloxone HCl 3 umol/kg i.v.): 52%
- % Inhibition ([4]; 1 umol/kg p.o., without naloxone): 62%
- % Inhibition ([4]; 2 umol/kg p.o., with Naloxone HCl 3 umol/kg i.v.): 69%
- % Inhibition ([4]; 2 umol/kg p.o., without naloxone): 76%
- reduction of induced analgesia by Naloxone ([4]; Table VIII): reduction
- ED50 ([4]; with Naloxone HCl 3 umol/kg i.v.): 1.1 µmol/kg
- ED50 ([4]; without naloxone): 0.6 µmol/kg
- % Inhibition ([5]; 0.5 umol/kg, orally): 21%
- % Inhibition ([5]; 1.0 umol/kg, orally): 46%
- % Inhibition ([5]; 2.0 umol/kg, orally): 54%
- potentiation of opioid analgesia ([5]; Table IX): potentiation of opioid analgesia
- ED50 ([5]; complex alone, orally): 1.5 µmol/kg
